Results as given in patent US8946205B2, “1,2,4-triazolo[4,3-a]pyridine derivatives and their use as positive allosteric modulators of mGluR2 receptors” (Janssen Pharmaceuticals, Inc., priority 2009, dated 2015).
Read-outs that look alike come from different tables or passages of the source.

Key:
male NMRI mice = experiment: Phencyclidine (PCP)-induced hyperlocomotion in mice (video tracking); format: in vivo; settings: for ED50: Mus musculus, sc, PCP 5 mg/kg s.c., criterion total distance <5500 counts, read-out: ED50 PCP-Inh. (inhibition of PCP-induced hyperlocomotion)
Description: On the day of experiments, the mice were brought into the procedural room. They were housed individually and allowed to acclimate for at least a half hour prior to testing. Although the studies were conducted during the light cycle (from 8:00 to 16:00 h), the procedure room was only sparsely lit (3 to 30 LUX) to provide better contrast for the video tracking. Local lighting was used for the injection procedures. During each trial, an individual mouse was placed in an open field arena (grey PVC cylinder with a height of 40 cm and a diameter of 22.5 cm). Each arena was placed on an infrared LED (8×8 LEDs)-lit box (white PVC squared box; 40×40 cm^2; height 12.5 cm). Each mouse was placed in the center of the arena and allowed to explore freely for 30 min. After each trial, the arena was cleaned with a wet and subsequently with a dry cleaning cloth. An infrared sensitive tube camera and a white light source (in arena: 4-7 LUX) were mounted to the ceiling above the observation chamber to record and input activity to a computer. Animal behavior was recorded and analyzed using the Noldus Ethovision XT Video Tracking System (Version 3.1; Noldus, Wageningen, The Netherlands). The total distance traveled (cm) was calculated. Data were then exported to data management systems for further analysis and reporting. Phencyclidine (PCP)-Induced Hyperlocomotion in Mice Test compound or solvent was administered at a pre-defined time before measurement (standard: 30 min) to male NMRI mice that were challenged with phencyclidine (PCP; 5 mg/kg, s.c.) 30 min before measurement. Activity was measured for a period of 30 min. Criterion for drug-induced inhibition of hyperlocomotion: total distance<5500 counts (3.9% false positives in controls; n=154). Conditioned Avoidance Response (CAR) Test Apparatus The apparatus consisted of an inner box surrounded by an outer box. The inner box was composed of four walls of transparent, synthetic material (length×width×height: 30×30×30 cm), an open top, and a grid floor made of 15 pairs of iron bars (2 mm diameter; 6 mm inter-bar distance). Odd and even bars were connected with a source of alternative current (1.0 mA; Coulbourn Instruments Solid State Shocker/Distributor), which could be interrupted by a switch. The outer box was composed of the same material (length×width×height: 40×40×36 cm), also with an open top, with a distance of 5 cm between the inner and outer box on all sides. To decrease the amount of environmental stimuli, three walls of the outer box were made non-transparent. The front wall was left transparent to allow the necessary inspection of the animal during the test. The upper edge of the outer and inner box served as a target for the rats on which to jump with fore- and hind-paws, respectively. Avoidance Conditioning and Selection of Animals From their arrival in the laboratory on the experimental day, male Wiga Wistar rats (230±30 g) were housed in individual cages provided with bedding material. […] Experimental Sessions The rats were tested 3 times, i.e. at 60, 90 and 120 min after the injection of test compound or solvent. Latency to avoidance was recorded. The median avoidance response obtained over the three experimental sessions for each rat were used for further calculations. […] Sleep Wake Electroencephalography (SW-EEG) in Rats SW-EEG analyses are a highly sensitive read-out of a compound's central functional activity that may provide additional insight in the potential therapeutic application (i.e. via drug classification fingerprinting). […] Internal efforts have confirmed that this effect is mGlu2 receptor-mediated, i.e. is absent in mGlu2 KO mice. Sleep abnormalities are often associated with CNS disorders; as such, the potential use of mGlu2 modulators could also have benefit in the treatment of CNS disorders in which (REM) sleep aberrations are manifested. […]

male Wiga Wistar rats = experiment: Conditioned avoidance response (CAR) test in rats; format: in vivo; settings: for ED50: Rattus norvegicus, criterion median avoidance latency >8 s
Description: On the day of experiments, the mice were brought into the procedural room. They were housed individually and allowed to acclimate for at least a half hour prior to testing. Although the studies were conducted during the light cycle (from 8:00 to 16:00 h), the procedure room was only sparsely lit (3 to 30 LUX) to provide better contrast for the video tracking. Local lighting was used for the injection procedures. During each trial, an individual mouse was placed in an open field arena (grey PVC cylinder with a height of 40 cm and a diameter of 22.5 cm). Each arena was placed on an infrared LED (8×8 LEDs)-lit box (white PVC squared box; 40×40 cm^2; height 12.5 cm). Each mouse was placed in the center of the arena and allowed to explore freely for 30 min. After each trial, the arena was cleaned with a wet and subsequently with a dry cleaning cloth. An infrared sensitive tube camera and a white light source (in arena: 4-7 LUX) were mounted to the ceiling above the observation chamber to record and input activity to a computer. Animal behavior was recorded and analyzed using the Noldus Ethovision XT Video Tracking System (Version 3.1; Noldus, Wageningen, The Netherlands). The total distance traveled (cm) was calculated. Data were then exported to data management systems for further analysis and reporting. Phencyclidine (PCP)-Induced Hyperlocomotion in Mice Test compound or solvent was administered at a pre-defined time before measurement (standard: 30 min) to male NMRI mice that were challenged with phencyclidine (PCP; 5 mg/kg, s.c.) 30 min before measurement. Activity was measured for a period of 30 min. Criterion for drug-induced inhibition of hyperlocomotion: total distance<5500 counts (3.9% false positives in controls; n=154). Conditioned Avoidance Response (CAR) Test Apparatus The apparatus consisted of an inner box surrounded by an outer box. The inner box was composed of four walls of transparent, synthetic material (length×width×height: 30×30×30 cm), an open top, and a grid floor made of 15 pairs of iron bars (2 mm diameter; 6 mm inter-bar distance). Odd and even bars were connected with a source of alternative current (1.0 mA; Coulbourn Instruments Solid State Shocker/Distributor), which could be interrupted by a switch. The outer box was composed of the same material (length×width×height: 40×40×36 cm), also with an open top, with a distance of 5 cm between the inner and outer box on all sides. To decrease the amount of environmental stimuli, three walls of the outer box were made non-transparent. The front wall was left transparent to allow the necessary inspection of the animal during the test. The upper edge of the outer and inner box served as a target for the rats on which to jump with fore- and hind-paws, respectively. Avoidance Conditioning and Selection of Animals From their arrival in the laboratory on the experimental day, male Wiga Wistar rats (230±30 g) were housed in individual cages provided with bedding material. […] Experimental Sessions The rats were tested 3 times, i.e. at 60, 90 and 120 min after the injection of test compound or solvent. Latency to avoidance was recorded. […] Sleep Wake Electroencephalography (SW-EEG) in Rats SW-EEG analyses are a highly sensitive read-out of a compound's central functional activity that may provide additional insight in the potential therapeutic application (i.e. via drug classification fingerprinting). […]

human mGluR2 receptor = molecular target: T1, human mGluR2 receptor (Homo sapiens, UniProt Q14416); experiment: [35S]GTPγS binding assay (PAM assay, membranes from CHO cells transfected with the human mGluR2 receptor); format: biochemical; settings: in presence of glutamate at EC20; pEC50 = -log EC50 (mol/L); read-out: GTPγS-hR2 PAM pEC50 (converted)
T1 construct: expressed in transfected cells; host or cells: CHO cells (membranes)
Description: The [^35S]GTPγS binding assay is a functional membrane-based assay used to study G-protein coupled receptor (GPCR) function whereby incorporation of a non-hydrolysable form of GTP, [^35S]GTPγS (guanosine 5′-triphosphate, labelled with […] ^35S), is measured. The G-protein α subunit catalyzes the exchange of guanosine 5′-diphosphate (GDP) by guanosine triphosphate (GTP) and on activation of the GPCR by an agonist, [^35S]GTPγS, becomes incorporated and cannot be cleaved to continue the exchange cycle (Harper (1998) Current Protocols in Pharmacology 2.6.1-10, John Wiley & Sons, Inc.). […] Here we describe the use of the [^35S]GTPγS binding assay using membranes from cells transfected with the human mGluR2 receptor and adapted from Schaffhauser et al. ((2003) Molecular Pharmacology 4:798-810) for the detection of the positive allosteric modulation (PAM) properties of the compounds of this invention.
CHO-cells were cultured to pre-confluence and stimulated with 5 mM butyrate for 24 h, prior to washing in PBS, and then collected by scraping in homogenisation buffer (50 mM Tris-HCl buffer, pH 7.4, 4° C.). Cell lysates were homogenized briefly using an ultra-turrax homogenizer. The homogenate was centrifuged at 16,000 RPM (Sorvall RC-5C plus rotor SS-34) for 10 minutes and the supernatant discarded. The pellet was resuspended in 5 mM Tris-HCl, pH 7.4 and centrifuged again (18,000 RPM, 20 min, 4° C.). The final pellet was resuspended in 50 mM Tris-HCl, pH 7.4 and stored at −80° C. in appropriate aliquots before use. Protein concentration was determined by the Bradford method (Bio-Rad, USA) with bovine serum albumin as standard.
Measurement of mGluR2 positive allosteric modulatory activity of test compounds was performed as follows. Test compounds and glutamate were diluted in assay buffer containing 10 mM HEPES acid, 10 mM HEPES salt, pH 7.4, 100 mM NaCl, 3 mM MgCl2 and 10 μM GDP. Human mGlu2 receptor-containing membranes were thawed on ice and diluted in assay buffer supplemented with 14 μg/ml saponin. Membranes were pre-incubated with compound alone or together with a predefined (˜EC20) concentration of glutamate (PAM assay) for 30 min at 30° C. After addition of [^35S]GTPγS (f.c. 0.1 nM) microplates were shaken briefly and further incubated to allow [^35S]GTPγS incorporation on activation (30 minutes, 30° C.). Final assay mixtures contained 7 μg of membrane protein in 10 mM HEPES acid, 10 mM HEPES salt, pH 7.4, 100 mM NaCl, 3 mM MgCl2,10 μM GDP and 10 μg/ml saponin. Total reaction volume was 200 μl. Reactions were terminated by rapid filtration through Unifilter-96 GF/B filter plates (Packard, Meriden, Conn.) using a 96-well Packard filtermate harvester. Filters were washed 6 times with ice-cold 10 mM NaH2PO4/10 mM Na2HPO4, pH 7.4. Filters were then air-dried, and 40 μl of liquid scintillation cocktail (Microscint-O) was added to each well. Membrane-bound radioactivity was counted in a Microplate Scintillation and Luminescence Counter from Packard.
The concentration-response curves of representative compounds of the present invention—obtained in the presence of EC20 of mGluR2 agonist glutamate to determine positive allosteric modulation (PAM)—were generated using the Lexis software interface (developed at J&J). Data were calculated as % of the control glutamate response, defined as the maximal response that is generated upon addition of glutamate alone. Sigmoid concentration-response curves plotting these percentages versus the log concentration of the test compound were analyzed using non-linear regression analysis. The concentration producing half-maximal effect is then calculated as EC50. The pEC50 values below are calculated as the −log EC50 (wherein EC50 is expressed in mol/L). […]

rats = experiment: Sleep wake electroencephalography (SW-EEG) in rats; format: in vivo
Description: On the day of experiments, the mice were brought into the procedural room. They were housed individually and allowed to acclimate for at least a half hour prior to testing. Although the studies were conducted during the light cycle (from 8:00 to 16:00 h), the procedure room was only sparsely lit (3 to 30 LUX) to provide better contrast for the video tracking. Local lighting was used for the injection procedures. During each trial, an individual mouse was placed in an open field arena (grey PVC cylinder with a height of 40 cm and a diameter of 22.5 cm). Each arena was placed on an infrared LED (8×8 LEDs)-lit box (white PVC squared box; 40×40 cm^2; height 12.5 cm). Each mouse was placed in the center of the arena and allowed to explore freely for 30 min. After each trial, the arena was cleaned with a wet and subsequently with a dry cleaning cloth. An infrared sensitive tube camera and a white light source (in arena: 4-7 LUX) were mounted to the ceiling above the observation chamber to record and input activity to a computer. Animal behavior was recorded and analyzed using the Noldus Ethovision XT Video Tracking System (Version 3.1; Noldus, Wageningen, The Netherlands). The total distance traveled (cm) was calculated. Data were then exported to data management systems for further analysis and reporting. Phencyclidine (PCP)-Induced Hyperlocomotion in Mice Test compound or solvent was administered at a pre-defined time before measurement (standard: 30 min) to male NMRI mice that were challenged with phencyclidine (PCP; 5 mg/kg, s.c.) 30 min before measurement. Activity was measured for a period of 30 min. Criterion for drug-induced inhibition of hyperlocomotion: total distance<5500 counts (3.9% false positives in controls; n=154). […] Latency to avoidance was recorded. […] Sleep Wake Electroencephalography (SW-EEG) in Rats SW-EEG analyses are a highly sensitive read-out of a compound's central functional activity that may provide additional insight in the potential therapeutic application (i.e. via drug classification fingerprinting). […]

[1] = po, compound administered orally (*), read-out: ED50 CAR-Inh. (inhibition of conditioned avoidance response), administered orally

T1 sequence (Q14416 19-872): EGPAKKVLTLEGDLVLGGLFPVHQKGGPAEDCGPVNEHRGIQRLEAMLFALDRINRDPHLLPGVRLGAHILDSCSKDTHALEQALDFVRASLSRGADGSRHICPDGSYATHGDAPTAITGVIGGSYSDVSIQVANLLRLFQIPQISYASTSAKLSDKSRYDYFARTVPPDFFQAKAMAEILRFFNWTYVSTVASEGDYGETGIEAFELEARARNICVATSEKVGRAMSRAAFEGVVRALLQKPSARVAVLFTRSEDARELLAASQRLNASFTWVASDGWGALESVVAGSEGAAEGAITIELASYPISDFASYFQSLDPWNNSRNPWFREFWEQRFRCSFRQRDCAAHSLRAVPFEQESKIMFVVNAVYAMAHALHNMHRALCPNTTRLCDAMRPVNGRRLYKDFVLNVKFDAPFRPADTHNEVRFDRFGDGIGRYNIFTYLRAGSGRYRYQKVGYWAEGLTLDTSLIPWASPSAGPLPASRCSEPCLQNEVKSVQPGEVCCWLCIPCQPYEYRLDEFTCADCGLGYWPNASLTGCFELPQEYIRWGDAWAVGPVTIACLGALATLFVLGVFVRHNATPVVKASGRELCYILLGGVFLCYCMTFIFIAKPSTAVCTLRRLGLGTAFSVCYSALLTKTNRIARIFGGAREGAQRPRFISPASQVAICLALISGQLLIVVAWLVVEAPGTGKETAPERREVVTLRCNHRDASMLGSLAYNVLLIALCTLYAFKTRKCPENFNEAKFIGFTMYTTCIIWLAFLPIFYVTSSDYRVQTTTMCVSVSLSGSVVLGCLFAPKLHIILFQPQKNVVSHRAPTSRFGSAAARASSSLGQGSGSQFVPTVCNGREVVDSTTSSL

SMILES | melting point [°C] | inhibition of PCP-induced hyperlocomotion (in words) (male NMRI mice) | ED50 (male NMRI mice) [mg/kg] | inhibition of the conditioned avoidance response (in words) (male Wiga Wistar rats) | ED50 (male Wiga Wistar rats; not marked as oral, read-out: ED50 CAR-Inh. (inhibition of conditioned avoidance response)) [mg/kg] | ED50 (male Wiga Wistar rats; [1]) [mg/kg] | EC50 (human mGluR2 receptor) [nM] | effect on REM sleep (rats; oral administration) | lowest active dose for decrease of REM sleep (rats; p.o.) [mg/kg] | effect on REM sleep (rats; 3 mg/kg, p.o.)
O[C@H]1CC[C@H](n2ccc3cc(-c4ccn5c(CC6CC6)nnc5c4C(F)(F)F)ccc32)CC1 [Compound 4] | 206.9 | inhibited | 13.2 | inhibited | 20 | ≥ 40 | 11.2 | – | – | –
Clc1c(-c2ccc3c(ccn3-c3cccnc3)c2)ccn2c(CC3CC3)nnc12 [Compound 17, 8-Chloro-3-cyclopropylmethyl-7-[1-(pyridin-3-yl)-1H-indol-5-yl]-[1,2,4]triazolo[4,3-a]pyridine] | – | inhibited | 10.7 | inhibited | – | 20 | 79.4 | dose-dependently decrease REM sleep | 10 | –
Cc1ccc(-n2ccc3cc(-c4ccn5c(CC6CC6)nnc5c4Cl)cc(F)c32)cn1 [Compound 31] | 243.8 | inhibited | 7.1 | – | – | – | 22.9 | – | – | –
N[C@@]1(C(=O)O)CS(=O)(=O)[C@H]2[C@H](C(=O)O)[C@H]21 [LY404039, reference compound] | – | – | – | – | – | – | – | – | – | affect REM sleep
